Laboratory results taken from patent US5061794A, “Cephalosporin derivatives, and antibacterial agents” (priority 1986, dated 1991).
≈ marks a conversion by molar mass, not a printed value. Read-outs that look alike come from different tables or passages of the source.

Tests used:
E. coli CSH(RE45) = experiment: microbe, parasite or virus in culture; format: cell-based; conditions: Escherichia coli, 16 h, read-out: Minimum Inhibitory Concentration (MIC), *E. coli CSH(RE45), lactamase-producing strain; 10^6 CFU/ml
Procedure, shortened: (§1)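 Plate dilution on Mueller Hinton agar with various antibiotic concentrations. Inoculum size was 10^6 CFU/ml, incubation 16 hours at 37° C.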

E. coli CSH2 (RK1) = experiment: microbe, parasite or virus in culture; format: cell-based; conditions: Escherichia coli, 16 h, read-out: Minimum Inhibitory Concentration (MIC), *E. coli CSH2 (RK1), lactamase-producing strain; 10^6 CFU/ml
Procedure, shortened: as §1

E. cloacae 963 = experiment: in vitro antibacterial activity, agar plate dilution method (MIC); format: cell-based; conditions: 10^6 CFU/ml
Procedure, shortened: as §1

E. cloacae Nek 39 = experiment: as above; format: cell-based; conditions: Enterobacter cloacae, NEK39, 16 h, read-out: Minimum Inhibitory Concentration (MIC), *E. cloacae Nek 39, lactamase-producing strain; 10^6 CFU/ml
Procedure, shortened: as §1

E. coli GN5482 = experiment: as above; format: cell-based; conditions: Escherichia coli
Procedure, shortened: as §1

E. coli NIHJ JC2 = experiment: as above; format: cell-based; conditions: Escherichia coli, NIHJJC2, 16 h, read-out: Minimum Inhibitory Concentration (MIC), E. coli NIHJ JC2, 10^6 CFU/ml, 37° C.
Procedure, shortened: as §1

K. oxytoca GN10650 = experiment: as above; format: cell-based; conditions: Klebsiella oxytoca, 10^6 CFU/ml
Procedure, shortened: as §1

K. pneumoniae No. 42 = experiment: as above; format: cell-based; conditions: Klebsiella pneumoniae, NO.42, 16 h, read-out: Minimum Inhibitory Concentration (MIC), *K. pneumoniae No. 42, lactamase-producing strain; 10^6 CFU/ml
Procedure, shortened: as §1

K. pneumoniae PCI-602 = experiment: as above; format: cell-based; conditions: Klebsiella pneumoniae, PCI602, 16 h, 10^6 CFU/ml
Procedure, shortened: as §1

M. morganii GN5407 = experiment: as above; format: cell-based; conditions: Morganella morganii, GN5407, 16 h, read-out: Minimum Inhibitory Concentration (MIC), *M. morganii GN5407, lactamase-producing strain; 10^6 CFU/ml
Procedure, shortened: as §1

P. vulgaris HX-19 = experiment: as above; format: cell-based; conditions: Proteus vulgaris, HX19, 16 h, read-out: Minimum Inhibitory Concentration (MIC)
Procedure, shortened: as §1

P. vulgaris No. 33 = experiment: as above; format: cell-based; conditions: Proteus vulgaris, NO.33, 16 h, read-out: Minimum Inhibitory Concentration (MIC), *P. vulgaris No. 33, lactamase-producing strain; 10^6 CFU/ml
Procedure, shortened: as §1

S. aureus 209P NIHJ-JC1 = experiment: as above; format: cell-based; conditions: Staphylococcus aureus, 16 h
Procedure, shortened: as §1

S. marcescens IAM 1184 = experiment: as above; format: cell-based; conditions: Serratia marcescens, IAM1184, 16 h, read-out: Minimum Inhibitory Concentration (MIC)
Procedure, shortened: as §1

S. marcescens No. 16-2 = experiment: as above; format: cell-based; conditions: Serratia marcescens, NO.162, 16 h, 10^6 CFU/ml
Procedure, shortened: as §1

Ps. aeruginosa AK 109 = experiment: as above; format: cell-based, Pseudomonas aeruginosa; conditions: Pseudomonas aeruginosa, AK109, 16 h
Procedure, shortened: as §1

Ps. aeruginosa AKR17 = experiment: as above; format: cell-based, Pseudomonas aeruginosa; conditions: Pseudomonas aeruginosa
Procedure, shortened: as §1

Ps. aeruginosa IF03445 = experiment: as above; format: cell-based, Pseudomonas aeruginosa; conditions: Pseudomonas aeruginosa, 10^6 CFU/ml
Procedure, shortened: as §1

Ps. cepacia 23 = experiment: as above; format: cell-based, Pseudomonas cepacia; conditions: read-out: Minimum Inhibitory Concentration (MIC)
Procedure, shortened: as §1

A. calcoaceticus No. 4 = experiment: as above; format: cell-based, Acinetobacter calcoaceticus; conditions: Acinetobacter calcoaceticus, NO.4, 16 h, 10^6 CFU/ml
Procedure, shortened: as §1

[1] = Enterobacter cloacae, 963, 16 h, read-out: Minimum Inhibitory Concentration (MIC), E. cloacae 963
[2] = K. pneumoniae PCI-602, read-out: Minimum Inhibitory Concentration (MIC)
[3] = S. aureus 209P NIHJ-JC1, 10^6 CFU/ml, 37° C., 16 hours, read-out: Minimum Inhibitory Concentration (MIC)
[4] = *S. marcescens No. 16-2, lactamase-producing strain, read-out: Minimum Inhibitory Concentration (MIC)
[5] = 16 h, Ps. aeruginosa AKR17, 10^6 CFU/ml, read-out: Minimum Inhibitory Concentration (MIC)
[6] = A. calcoaceticus No. 4, read-out: Minimum Inhibitory Concentration (MIC)
[7] = Enterobacter cloacae, 16 h, E. cloacae 963, read-out: Minimum Inhibitory Concentration (MIC)
[8] = GN10650, 16 h, read-out: Minimum Inhibitory Concentration (MIC), *K. oxytoca GN10650, lactamase-producing strain
[9] = read-out: Minimum Inhibitory Concentration (MIC), K. pneumoniae PCI-602
[10] = read-out: Minimum Inhibitory Concentration (MIC)
[11] = S. marcescens IAM 1184, 10^6 CFU/ml
[12] = read-out: Minimum Inhibitory Concentration (MIC), *S. marcescens No. 16-2, lactamase-producing strain
[13] = read-out: Minimum Inhibitory Concentration (MIC), Ps. aeruginosa AK 109, 10^6 CFU/ml
[14] = AKR17, 16 h, read-out: Minimum Inhibitory Concentration (MIC)
[15] = IF03445, 16 h, read-out: Minimum Inhibitory Concentration (MIC), Ps. aeruginosa IF03445
[16] = Burkholderia cepacia, 16 h, Ps. cepacia 23, 10^6 CFU/ml
[17] = GN5482, 16 h, read-out: Minimum Inhibitory Concentration (MIC), *E. coli GN5482, lactamase-producing strain, 10^6 CFU/ml
[18] = read-out: Minimum Inhibitory Concentration (MIC), S. aureus 209P NIHJ-JC1, 10^6 CFU/ml, 37° C., 16 hours
[19] = read-out: Minimum Inhibitory Concentration (MIC), A. calcoaceticus No. 4

Structure (SMILES) | MIC (E. coli CSH(RE45)) [µg/mL] | MIC (E. coli CSH2 (RK1)) [µg/mL] | MIC (E. cloacae 963; [1]) [µg/mL] | MIC (E. cloacae Nek 39) [µg/mL] | MIC (E. coli NIHJ JC2) [µg/mL] | MIC (K. pneumoniae No. 42) [µg/mL] | MIC (K. pneumoniae PCI-602; [2]) [µg/mL] | MIC (M. morganii GN5407) [µg/mL] | MIC (P. vulgaris HX-19; P. vulgaris HX-19, 10^6 CFU/ml) [µg/mL] | MIC (P. vulgaris No. 33) [µg/mL] | MIC (A. calcoaceticus No. 4; [6]) [µg/mL] | MIC (K. oxytoca GN10650; [8]) [µg/mL] | MIC (K. pneumoniae PCI-602; [9]) [µg/mL] | MIC (S. marcescens IAM 1184; [11]) [µg/mL] | MIC (S. marcescens No. 16-2; [12]) [µg/mL] | MIC (Ps. aeruginosa AK 109; [13]) [µg/mL] | MIC (Ps. aeruginosa AKR17; [14]) [µg/mL] | MIC (Ps. aeruginosa IF03445; [15]) [µg/mL] | MIC (Ps. cepacia 23; [16]) [µg/mL] | MIC (E. coli GN5482; [17]) [µg/mL] | further results
CO/N=C(\C(=O)N[C@@H]1C(=O)N2C(C(=O)O)=C(CSc3nc(-c4ccc(OC(C)=O)cc4)c(CC(=O)O)s3)CS[C@H]12)c1csc(N)n1 [compound 18, disodium 3-[4-(4-acetoxyphenyl)-5-carboxylatemethylthiazol-2-yl]thiomethyl-7δ-[2-(2-aminothiazol-4-yl)-2-methoxyiminoacetamido]-3-cephem-4-carboxylate, reference compound] | 1.56 | 0.78 | 0.78 | 12.5 | 0.78 | 0.78 | 0.2 | 0.39 | < 0.006 | 0.1 | 100 | – | – | – | – | – | – | – | – | – | MIC (E. coli GN5482; 16 h, *E. coli GN5482, lactamase-producing strain, 10^6 CFU/ml, read-out: Minimum Inhibitory Concentration (MIC)): 3.12 µg/mL; MIC (K. oxytoca GN10650; 16 h, *K. oxytoca GN10650, lactamase-producing strain, read-out: Minimum Inhibitory Concentration (MIC)): 25 µg/mL; MIC (S. aureus 209P NIHJ-JC1; [3]): 3.12 µg/mL; MIC (S. marcescens IAM 1184): 0.78 µg/mL; MIC (S. marcescens No. 16-2; [4]): 100 µg/mL; MIC (Ps. aeruginosa AK 109; Ps. aeruginosa AK 109, 10^6 CFU/ml, read-out: Minimum Inhibitory Concentration (MIC)): > 100 µg/mL; MIC (Ps. aeruginosa AKR17; [5]): > 100 µg/mL; MIC (Ps. aeruginosa IF03445; 16 h, Ps. aeruginosa IF03445, read-out: Minimum Inhibitory Concentration (MIC)): 100 µg/mL; MIC (Ps. cepacia 23; Burkholderia cepacia, 23, 16 h): 12.5 µg/mL
Nc1nc(C(=NOCC(=O)O)C(=O)NC2C(=O)N3C(C(=O)O)=C(CSc4nc(-c5ccc(O)c(O)c5)cs4)CSC23)cs1 (stereo not drawn) [Ex. 43, disodium 7β-[2-(2-aminothiazol-4-yl)-2-carboxylatemethoxyimincacetamido]-3-[4-(3,4-dihydroxyphenyl)thiazol-2-yl]thiomethvl-3-cephem-4-carboxylate] | 0.025 | 0.025 | – | 0.2 | 0.2 | 0.1 | – | 0.05 | < 0.006 | 0.05 | 0.2 | 0.39 | < 0.006 | 0.05 | 1.56 | 0.78 | 12.5 | 0.78 | < 0.006 | – | MIC (E. cloacae 963; [7]): 0.1 µg/mL; MIC (E. coli GN5482; GN5482, 16 h, read-out: Minimum Inhibitory Concentration (MIC)): 0.39 µg/mL; MIC (S. aureus 209P NIHJ-JC1; [10]): 12.5 µg/mL
Nc1nc(/C(=N/OC(C(=O)O)c2ccc(O)c(O)c2)C(=O)N[C@@H]2C(=O)N3C(C(=O)O)=C(CSc4nnc(-c5ccc(O)c(O)c5)o4)CS[C@H]23)cs1 (stereo partly drawn) [compound 16] | 3.12 (≈ 4.12 µM) | 0.025 (≈ 0.033 µM) | 0.39 (≈ 0.515 µM) | 0.78 (≈ 1.03 µM) | 0.2 (≈ 0.264 µM) | 0.2 (≈ 0.264 µM) | < 0.006 | 0.2 (≈ 0.264 µM) | 0.05 (≈ 0.066 µM) | 0.78 (≈ 1.03 µM) | – | 0.1 (≈ 0.132 µM) | – | 0.1 (≈ 0.132 µM) | – | 0.78 (≈ 1.03 µM) | 3.12 (≈ 4.12 µM) | 6.25 (≈ 8.25 µM) | < 0.006 | 0.78 (≈ 1.03 µM) | MIC (S. aureus 209P NIHJ-JC1; [18]): 1.56 µg/mL (≈ 2.06 µM); MIC (S. marcescens No. 16-2; [4]): 25 µg/mL (≈ 33 µM); MIC (A. calcoaceticus No. 4; [19]): 0.1 µg/mL (≈ 0.132 µM)
CC(C)ON=C(C(=O)NC1C(=O)N2C(C(=O)O)=C(CSc3nc(-c4ccc(O)c(O)c4)cs3)CSC12)c1csc(N)n1 (stereo not drawn) [Ex. 41, sodium 7β-[2-(2-aminothiazol-4-yl)-2-isooropoxyiminoacetamido]-3-[4-(3,4-dihydroxyphenyl)-thiazol-2-yl]thiomethyl-3-cechem-4-carboxylate] | < 0.006 | 0.0125 | – | 0.2 | 0.2 | 0.1 | – | 0.05 | 0.025 | 0.05 | – | 0.39 | < 0.006 | 0.05 | 6.25 | – | – | 0.78 | 0.05 | 0.78 | MIC (E. cloacae 963; [7]): 0.1 µg/mL; MIC (S. aureus 209P NIHJ-JC1; [18]): 1.56 µg/mL; MIC (Ps. aeruginosa AK 109; [10]): 0.39 µg/mL; MIC (Ps. aeruginosa AKR17; [5]): 50 µg/mL; MIC (A. calcoaceticus No. 4; [19]): 0.39 µg/mL
CC(C)(ON=C(C(=O)NC1C(=O)N2C(C(=O)O)=C(CSc3nc(-c4ccc(O)c(O)c4)c(CC(=O)O)s3)CSC12)c1csc(N)n1)C(=O)O (stereo not drawn) [Example 59 (I), trisodium 7β-[2-(2-aminothiazol-4-yl)-2-(1-carboxylate-1-methylethoxyimino)acetamido]-3-[4-(3,4-dihydroxyphenyl)-5-carboxylatemethylthiazol-2yl]thiomethyl-3-cephem-4-carboxylate] | 0.05 | 0.025 | 0.39 | 0.2 | 1.56 | 0.2 | 0.0125 | 0.1 | 0.025 | 0.1 | 0.2 | 0.1 | – | 0.2 | 1.56 | 1.56 | – | 1.56 | < 0.006 | 1.56 | MIC (S. aureus 209P NIHJ-JC1; [3]): 100 µg/mL; MIC (Ps. aeruginosa AKR17; AKR17, 16 h, read-out: Minimum Inhibitory Concentration (MIC), Ps. aeruginosa AKR17, 10^6 CFU/ml): 1.56 µg/mL
CCON=C(C(=O)N[C@@H]1C(=O)N2C(C(=O)[O-])=C(CSc3ncc(-c4ccc(O)c(O)c4)o3)CS[C@H]12)c1csc(N)n1.[Na+] [Ex. 63, sodium 7β-[2-(2-aminothiazol-4-yl)-2-ethoxyiminoacetamido]-3-[5-(3,4-dihydroxyphenyl)-oxazol-2-yl]thiomethyl-3-cephem-4-carboxylate] | 0.1 | 0.0125 | 0.2 | 0.39 | 0.39 | 0.1 | – | 0.1 | – | 0.025 | – | 3.12 | < 0.006 | – | 6.25 | 1.56 | 100 | 1.56 | – | 1.56 | MIC (P. vulgaris HX-19): 0.0125 µg/mL; MIC (S. aureus 209P NIHJ-JC1; [10]): 3.12 µg/mL; MIC (S. marcescens IAM 1184): 0.1 µg/mL; MIC (Ps. cepacia 23; Burkholderia cepacia, 23, 16 h): 0.1 µg/mL; MIC (A. calcoaceticus No. 4; [19]): 0.78 µg/mL
